According to the NIST ThermoML archive (doi:10.1016/j.jct.2017.02.009):
Numbers after ± are expanded uncertainties.

How the values were obtained:
[1] = 100 kPa, Liquid; for mass density: Vibrating tube method; for viscosity: Capillary tube (Ostwald / Ubbelohde) method
[2] = xn = mol fraction of the nth substance listed; details: 100 kPa, Liquid, x1 = 1; for mass density: Vibrating tube method

| Compound | mass density ([1]; 293.15 K) [kg/m3] | viscosity ([1]; 298.15 K) [mPa·s] | mass density ([1]; 298.15 K) [kg/m3] | mass density ([1]; 303.15 K) [kg/m3] | mass density ([1]; 313.15 K) [kg/m3] | mass density ([2]; 293.15 K) [kg/m3] | viscosity ([2]; 298.15 K, Capillary tube (Ostwald / Ubbelohde) method) [mPa·s] | mass density ([2]; 298.15 K) [kg/m3] | mass density ([2]; 303.15 K) [kg/m3] | mass density ([2]; 313.15 K) [kg/m3] |
| --- | --- | --- | --- | --- | --- | --- | --- | --- | --- | --- |
| C[S+](C)[O-] [dimethyl sulfoxide] | 1100.2 ± 1 | 1.985 ± 0.025 | 1095.2 ± 1 | 1090.2 ± 1 | 1080.2 ± 1 |  |  |  |  |  |
| C[S+](C)[O-] [dimethyl sulfoxide] + O=C1CCCO1 |  |  |  |  |  | 1100.2 ± 1 | 1.985 ± 0.025 | 1095.2 ± 1 | 1090.2 ± 1 | 1080.2 ± 1 |
| O=C1CCCO1 [γ-butyrolactone] | 1129.4 ± 1 | 1.72 ± 0.024 | 1124.5 ± 1 | 1119.6 ± 1 | 1109.8 ± 1 |  |  |  |  |  |
